Reference: PMC8524809 (Molecular Therapy, 2021)

How the values were obtained:
[1] = cited from earlier work
in vitro = conditions: human

For CC(C)(O)c1ccccc1CC[C@@H](SCC1(CC(=O)O)CC1)c1cccc(/C=C/c2ccc3ccc(Cl)cc3n2)c1 [montelukast], the “Side effects / tolerability” value ([1]; all doses 10 mg/day to 200 mg/day, ref 23 (Altman et al.)) is listed as “no significant clinical or laboratory side effects”, the Toxicity tolerance ([1]; high doses (i.e., 200 mg/day)) is listed as “toxicity tolerance is high” and the viability (in vitro) is listed as 86 to 90%.
